Results published in ChEMBL document CHEMBL1131167, “Structure-activity relationships of a series of analogues of the octadecaneuropeptide ODN on calcium mobilization in rat astrocytes” (1998).
Peptide text beside a SMILES is read from it.

Legend:
Format in all cases: functional
Rattus norvegicus [1] = species on record: Rattus norvegicus; assay: Effect of compound on basal [Ca2+] and ODN induced [Ca2+] increase in cultured rat astrocytes measured at 10*e-6 conc (M)
Rattus norvegicus [2] = species on record: Rattus norvegicus; assay: Effect of compound on basal [Ca2+] and ODN induced [Ca2+] increase in cultured rat astrocytes measured at 10*e-8+10e-6 conc (M) in the presence of [Ala15]ODN. p<0.001
Rattus norvegicus [3] = species on record: Rattus norvegicus; assay: Effect of compound on basal [Ca2+] and ODN induced [Ca2+] increase in cultured rat astrocytes measured at 10*e-8+10e-6 conc (M) in the presence of [Ala9]ODN. p<0.001
Rattus norvegicus [4] = species on record: Rattus norvegicus; assay: Effect of compound on basal [Ca2+] and ODN induced [Ca2+] increase in cultured rat astrocytes measured at 10*e-8+10e-6 conc (M) in the presence of [D-Leu15]-ODN
Rattus norvegicus [5] = species on record: Rattus norvegicus; assay: Effect of compound on basal [Ca2+] and ODN induced [Ca2+] increase in cultured rat astrocytes measured at 10*e-8+10e-6 conc (M) in the presence of [D-Thr9]-ODN
Rattus norvegicus [6] = species on record: Rattus norvegicus; assay: Effect of compound on basal [Ca2+] and ODN induced [Ca2+] increase in cultured rat astrocytes measured at 10*e-8 conc (M).
Rattus norvegicus [7] = species on record: Rattus norvegicus; assay: Effect of compound on basal [Ca2+] and ODN induced [Ca2+] increase in cultured rat astrocytes measured at 10*e-8+10e-6 conc (M) in the presence of [D-Leu5-]OP

Row | Compound | [Ca2+] variation (Rattus norvegicus [1]) [nM] | [Ca2+] variation (Rattus norvegicus [2]) [nM] | [Ca2+] variation (Rattus norvegicus [3]) [nM] | [Ca2+] variation (Rattus norvegicus [4]) [nM] | [Ca2+] variation (Rattus norvegicus [5]) [nM] | [Ca2+] variation (Rattus norvegicus [6]) [nM] | [Ca2+] variation (Rattus norvegicus [7]) [nM]
1 | CC(C)C[C@H](NC(=O)CNC(=O)[C@@H]1CCCN1C(=O)[C@@H](N)CCCNC(=N)N)C(=O)N[C@@H](C)C(=O)N[C@@H](CC(=O)O)C(=O)N[C@@H](CC(C)C)C(=O)N[C@@H](CCCCN)C(=O)O (H-RPGLADLK-OH) | 37 | – | – | – | – | – | –
2 | CC(C)C[C@H](NC(=O)CNC(=O)[C@@H]1CCCN1C(=O)[C@H](CCCN=C(N)N)NC(=O)[C@H](CC(=O)O)NC(=O)[C@@H](NC(=O)[C@H](CC(N)=O)NC(=O)[C@@H](NC(=O)[C@H](CC(=O)O)NC(=O)CNC(=O)[C@@H](NC(=O)[C@@H](NC(=O)[C@H](C)NC(=O)[C@@H](N)CCC(N)=O)[C@@H](C)O)C(C)C)C(C)C)[C@@H](C)O)C(=O)N[C@@H](CC(C)C)C(=O)N[C@@H](CC(=O)O)C(=O)N[C@@H](CC(C)C)C(=O)N[C@@H](CCCCN)C(=O)O [QATVGDVNTDRPGLLDLK] (H-QATVGDVNTDRPGLLDLK-OH) | – | 36 | 39 | 25 | 31 | 62 | 39
